Laboratory results taken from US20260226222A1, “PROCESS FOR MANUFACTURING POLYURETHANE FOAM” (Galata Chemicals, LLC, priority 2023, published 2026).
“And” between values parts separate entries of the source, which are not always exact repeats. Equal entries are not always repeated. Where two headings read alike, the source gives them in different places.

Assays:
[1] = cited from earlier work
[2] = Catalytic Activity Test (Dielectric Polarization Analyzer SubCASE HT)
Experimental: Comparative catalytic activity of selected tin-containing catalysts was determined with the use of Dielectric Polarization Analyzer SubCASE HT (Format Messtechnik GmbH) that converts the dielectric conductivity signal to Pot Life and Cure Time (among others) of curing polymer systems. Pot Life was determined by the instrument as time between the mixing the reactants and beginning of the polymerization process at 10% reduction in dielectrical properties from the initial point. Cure Time is calculated as the time between the maximum cure rate point and the point at which the maximum rate is slowed down by 25%. The polyurethane test formulation used for screening catalytic activity of the selected tin-containing catalysts with the use of SubCASE HT is shown in Table 1.
The selected catalysts were tested at loadings of the same tin content. The following catalysts were tested for comparative catalytic activity: stannous di-2-ethylhexanoate, stannous dineodecanoate, stannous diricinoleate, dimethyltin dioleate and dimethyltin dineodecanoate. A catalyst was added to the polyol and mixed at 400 rpm until thoroughly dispersed. IPDI was then added to the polyol/catalyst mixture and mixed for 20 seconds at 400 rpm before introducing the mixture into the SubCASE HT instrument and starting the kinetics measurements. The instrument temperature was set to 30° C. Results of the comparative catalytic activity test for Pot Life and Cure Time of the selected tin-containing catalysts are in Table 2.

[3] = for Cream time / % Elongation / Density / Permeability / Resiliency / Tensile: catalyst 0.23 pphp
Experimental: In addition to the above Examples carried out in the screening polyurethane formulation, actual flexible polyurethane foam specimens were prepared and tested for their performance characteristics.
The flexible polyurethane foam formulation is in Table 4.
Testing results of the prepared foams are in Table 5.

[4] = reproductive toxicity / CMR status, current or as in Comments
[5] = same amount of tin (0.029 g), 30° C.

Compound	CMR classification ([1]; current)	CMR classification [1, 4]	CMR Classification (mutagen) ([1]; mutagenicity)	Cure Time [2, 5]	Cure Time-Pot Life [2, 5]	Pot Life [2, 5]	Cure Time ([2]; same tin amount)	Pot Life ([2]; same tin amount)	Cream time [3]	elongation ([3]; foam)	increase of elongation compared to Example Control 1 and Example Control 2 ([3]; foam)	% Elongation ([3]; foam)	Density ([3]; foam)	Permeability ([3]; foam)	Resiliency ([3]; foam)	Tensile ([3]; foam)
CC(=O)[O-].CC(=O)[O-].[CH3][Sn+2][CH3] [Dimethyltin diacetate]	reprotoxicants of category 2	Reprotox. of Cat. 2														
Dibutyltin dilaurate	reprotoxicants of category 1B	Reprotox. of Cat. 1B	Mutagen of Cat. 2													
Dimethyltin dineodecanoate	reprotoxicants of category 2	Reprotox. of Cat. 2		695 s	321 s	374 s	695 s	374 s	18 s	107%	about 31%	107%	1.37 lbs/ft3	0.3 scfm	20%	15 psi
Dimethyltin dioleate	reprotoxicants of category 2	Reprotox. of Cat. 2		1135 s	533 s	602 s		602 s								
Dimethyltin diricinoleate	reprotoxicants of category 2	Reprotox. of Cat. 2		928 s	457 s	471 s	928 s	471 s	17 s			93%	1.39 lbs/ft3	4.4 scfm	35%	14 psi
Dioctyltin dilaurate	reprotoxicants of category 1B	Reprotox. of Cat. 1B														
Stannous di(2-ethylhexanoate)				420 s	109 s	311 s		311 s	17 s							
Stannous dineodecanoate	non-CMR	Not CMR		741 s	337 s	404 s	741 s	404 s and 471 s	15 s	97%		97%	1.32 lbs/ft3	0.6 scfm	28%	14 psi
Stannous diricinoleate	non-CMR	Not CMR		895 s	335 s	560 s	895 s	560 s								
